Test results published in patent publication US20240325334A1, “COMPOSITION FOR GENERATING NITROGEN MONOXIDE” (SEOUL NATIONAL UNIVERSITY R&DB FOUNDATION, priority 2021, published 2024).

Experiment: NO generation experiment: compound reacted with H2O2 in the presence of a catalyst, Griess assay
Conditions: compound 1 mg/ml, PBS pH 5.5, 1 mM H2O2, 37° C., 4 hours
Procedure: Generation of nitric oxide was investigated by reacting the above-described compounds having a structure of
with hydrogen peroxide (H2O2) in the presence of a catalyst. After suspending particles including 1 mg/ml of the compound below and the catalyst in a medium composed of 5 ml of PBS at pH 5.5 and hydrogen peroxide (H2O2) at 1 mM concentration, the suspension was subjected to incubation at 37° C. for 4 hours, followed by sampling the supernatant to analyze the NO generation through Griess assay.

N=C(N)NCCC[C@H](NC(=O)OCc1ccccc1)C(=O)O [Nα-Benzyloxycarbonyl-L-arginine]
Concentration of generated NO (catalyst Mn-porphyrin 2 mg/ml): 34 µM | Concentration of generated NO (catalyst PCN-223-Fe 1 mg/ml): 216 µM
